Assay results reported in patent US20150104519A1, “Pharmaceutical Compositions” (Alpharma Pharmaceuticals LLC, priority 2007, published 2015).
Where a name gives a salt, the structure may show the parent alone.

Key:
[1] = in comparison to a 15 mg dose of hydrocodone
[2] = cited from earlier work
morphine effects = conditions: three 100-mg doses of naltrexone; MS Contin; cited from earlier work
mu over delta sites = conditions: cited from earlier work

| Molecule | Equianalgesic dose, Calculated Dose [1] [mg] | further results |
| --- | --- | --- |
| COc1ccc2c3c1OC1C(=O)CC[C@@]4(O)[C@@H](C2)N(C)CC[C@]314 (stereo partly drawn) [Oxycodone, 4,5-epoxy-14-hydroxy-3-methoxy-17-methylmorphinan-6-one] | 13.5 |  |
| O=C1CC[C@@]2(O)[C@H]3Cc4ccc(O)c5c4[C@@]2(CCN3CC2CC2)[C@H]1O5 [hydrochloride salt of naltrexone, Naltrexone HCl] |  | soluble in water [2]: about 100 mg/cc |
| COc1ccc2c3c1O[C@H]1[C@@H](O)C=C[C@H]4[C@@H](C2)N(C)CC[C@@]341 [Codeine] | 90.0 |  |
| Meperidine | 135.0 |  |
| O=C1CC[C@@]2(O)[C@H]3Cc4ccc(O)c5c4[C@@]2(CCN3CC2CC2)[C@H]1O5 [naltrexone] |  | blockade of morphine effects (morphine effects): blocked; blocking action, site preference (mu over delta sites): strong preferential blocking action against mu over delta sites |
| CN1CC[C@]23CCCC[C@H]2[C@H]1Cc1ccc(O)cc13 [Levorphanol] | 1.8 |  |
| COc1ccc2c3c1OC1C(=O)CC[C@H]4[C@@H](C2)N(C)CC[C@]314 (stereo partly drawn) [Hydrocodone, 4,5-epoxy-3-methoxy-17-methylmorphinan-6-one] | 15.0 |  |
| CCC(=O)C(CC(C)N(C)C)(c1ccccc1)c1ccccc1 (stereo not drawn) [Methadone] | 9.0 |  |
